# Source: US20080051285A1 (priority 2004, published 2008)
# Read-outs that look alike come from different tables or passages of the source.
# Tested on: Pyricularia oryzae
# Assay type: in vivo
# Details: individual active compound, protective, inoculated next day, assessed after 6 days
SMILES,Efficacy in % of the untreated control (1 ppm in the spray liquor),Efficacy in % of the untreated control (4 ppm in the spray liquor)
CC1CCN(c2c(-c3c(F)cccc3Cl)c(Cl)nc3ncnn23)CC1 [A],0%,13%
C[C@H](Nc1c(-c2c(F)cc(F)cc2F)c(Cl)nc2ncnn12)C(F)(F)F [B],13%,57%
"CC1CCN(c2c(-c3c(F)cc(F)cc3F)c(Cl)nc3ncnn23)CC1 [compound I, 5-chloro-7-(4-methylpiperidin-1-yl)-6-(2,4,6-trifluorophenyl)-[1,2,4]tri-azolo[1,5-a]pyrimidine]",13%,28%
"C=CC1(C)OC(=O)N(c2cc(Cl)cc(Cl)c2)C1=O (centres unmarked) [compound II, 3-(3,5-dichlorophenyl)-5-methyl-5-vinyloxazolidine-2,4-dione]",0%,0%
